Nc1ccc(Oc2ccc(N)cc2)cc1
solubility (mole fraction)
Conditions | 283.15 K | 288.15 K | 293.15 K | 298.15 K | 303.15 K | 308.15 K | 313.15 K | 318.15 K | 323.15 K
in 2-ethoxyethanol | 0.0274 | 0.0288 | 0.0306 | 0.0329 | 0.0358 | 0.0394 | 0.0436 | 0.0486 | 0.0544
in DMAc | 0.133 | 0.136 | 0.139 | 0.143 | 0.147 | 0.152 | 0.156 | 0.162 | 0.168
in DMF | 0.104 | 0.107 | 0.11 | 0.115 | 0.12 | 0.126 | 0.132 | 0.138 | 0.145
in DMSO | – | – | – | 0.153 | 0.159 | 0.165 | 0.172 | 0.179 | 0.187
in ethanol | 0.000434 | 0.000549 | 0.0007 | 0.00089 | 0.00113 | 0.00143 | 0.00176 | 0.00217 | 0.0027
in methanol | 0.00114 | 0.00132 | 0.00153 | 0.00178 | 0.00208 | 0.00246 | 0.00293 | 0.00349 | 0.00416

Reference: BigSolDB 2.1
